Our source for the IC50 values is patent US11524968B2, “Heterocyclic compound as a protein kinase inhibitor” (HK inno.N Corporation, priority 2017, dated 2022).

The target in this experiment is JAK1 (Homo sapiens (Human), UniProt P23458). As to the kind of experiment: Analysis of JAK1 activity inhibition ability (ADP-Glo Kinase Assay). To be noted: JAK1 enzyme, ADP-Glo luminescence, ATP 250 uM, IRS-itide substrate, 30° C. 40 minutes; read-out: IC50. In kind it is biochemical. In a few lines: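 ADP-Glo luminescence read-out of ADP production, with IC50 taken as the concentration halving JAK1 activity relative to control. Enzyme was incubated 40 min at 30 °C with compound, IRS-itide (40 ng/mL) and ATP (250 uM), concentrations as prepared in pH 7.5 Tris-HCl/MgCl2/BSA/DTT buffer.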
In general terms: ADP-Glo first removes unused ATP, then detects ADP through luciferase.

Sequence of JAK1 (P23458 whole entry): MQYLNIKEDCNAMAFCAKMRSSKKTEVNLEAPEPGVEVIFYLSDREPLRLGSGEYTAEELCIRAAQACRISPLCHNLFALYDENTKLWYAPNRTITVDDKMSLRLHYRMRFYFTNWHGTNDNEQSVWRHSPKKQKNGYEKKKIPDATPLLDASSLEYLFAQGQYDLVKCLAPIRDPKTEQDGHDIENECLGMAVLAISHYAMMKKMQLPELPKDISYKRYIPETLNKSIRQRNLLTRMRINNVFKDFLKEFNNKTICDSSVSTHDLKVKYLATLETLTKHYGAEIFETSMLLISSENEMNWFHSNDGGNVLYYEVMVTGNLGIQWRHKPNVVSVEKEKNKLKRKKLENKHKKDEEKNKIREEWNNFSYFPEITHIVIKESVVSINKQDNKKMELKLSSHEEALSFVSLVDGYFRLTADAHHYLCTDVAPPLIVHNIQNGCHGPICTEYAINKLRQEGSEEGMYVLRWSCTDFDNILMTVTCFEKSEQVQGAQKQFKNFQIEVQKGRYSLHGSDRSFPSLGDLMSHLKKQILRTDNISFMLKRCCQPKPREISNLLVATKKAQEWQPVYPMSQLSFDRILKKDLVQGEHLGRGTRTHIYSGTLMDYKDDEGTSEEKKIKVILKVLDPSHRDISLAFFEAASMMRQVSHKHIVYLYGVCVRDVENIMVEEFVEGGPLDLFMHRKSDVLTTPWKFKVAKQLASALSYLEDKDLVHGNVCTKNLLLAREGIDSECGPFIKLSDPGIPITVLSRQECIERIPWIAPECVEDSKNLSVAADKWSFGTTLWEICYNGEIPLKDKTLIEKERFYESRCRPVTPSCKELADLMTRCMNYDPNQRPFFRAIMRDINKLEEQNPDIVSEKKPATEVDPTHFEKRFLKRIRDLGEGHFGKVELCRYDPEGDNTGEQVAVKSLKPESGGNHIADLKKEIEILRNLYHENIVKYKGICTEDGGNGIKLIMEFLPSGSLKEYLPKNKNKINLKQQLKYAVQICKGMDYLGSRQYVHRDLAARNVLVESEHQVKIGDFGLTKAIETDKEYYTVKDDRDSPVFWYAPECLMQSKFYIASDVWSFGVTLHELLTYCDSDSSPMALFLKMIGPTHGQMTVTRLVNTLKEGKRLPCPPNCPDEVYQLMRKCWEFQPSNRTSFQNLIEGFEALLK

One may read the IC50 as the midpoint of a concentration-inhibition curve. Turning to `CCCS(=O)(=O)N[C@H]1CCN(c2nc(NC(=O)C3CC3)nc3[nH]ccc23)C1` [Example 670, (S)—N-(4-(3-(propylsulfonamido)pyrrolidin-1-yl)-7H-pyrrolo[2,3-d]pyrimidin-2-yl)cyclopropanecarboxamide], the half-inhibitory concentration (IC50) was over 200 nM.

As for `C=CCS(=O)(=O)N[C@H]1CCN(c2nc(NC(=O)C3CC3)nc3[nH]ccc23)C1` [Example 671, (S)—N-(4-(3-(allylsulfonamido)pyrrolidin-1-yl)-7H-pyrrolo[2,3-d]pyrimidin-2-yl)cyclopropanecarboxamide], the IC50 is over 200 nM.

For `CCS(=O)(=O)N(C)[C@H]1CCN(c2cc(NC(=O)C3CC3)nc3[nH]ccc23)C1` [Example 672, (S)—N-(4-(3-(N-methylethylsulfonamido)pyrrolidin-1-yl)-1H-pyrrolo[2,3-b]pyridin-6-yl)cyclopropanecarboxamide], the IC50 was over 200 nM.

As for `O=C(Nc1cc(N2CCN(S(=O)(=O)N3CCOCC3)CC2)c2cc[nH]c2n1)C1CC1` [Example 673, N-(4-(4-(morpholinosulfonyl)piperazin-1-yl)-1H-pyrrolo[2,3-b]pyridin-6-yl)cyclopropanecarboxamide], the half-inhibitory concentration (IC50) is over 200 nM.

Take `CN(C)S(=O)(=O)N1CCN(c2cc(NC(=O)C3CC3)nc3[nH]ccc23)CC1` [Example 674, N-(4-(4-(N,N-dimethylsulfamoyl)piperazin-1-yl)-1H-pyrrolo[2,3-b]pyridin-6-yl)cyclopropanecarboxamide]: the IC50 is over 200 nM.

In the case of `N#CCC(=O)NC1CCN(c2cc(NC(=O)C3CC3)nc3[nH]ccc23)CC1` [Example 675, N-(4-(4-(2-cyanoacetamido)piperidin-1-yl)-1H-pyrrolo[2,3-b]pyridin-6-yl)cyclopropanecarboxamide], the IC50 was over 200 nM.

Turning to `N#CCC(=O)N1CCN(c2cc(NC(=O)C3CC3)nc3[nH]ccc23)CC1` [Example 676, N-(4-(4-(2-cyanoacetyl)piperazin-1-yl)-1H-pyrrolo[2,3-b]pyridin-6-yl)cyclopropanecarboxamide], the IC50 is over 200 nM.

Take `N#CCC(=O)N1C2CCC1CN(c1cc(NC(=O)C3CC3)nc3[nH]ccc13)C2` [Example 677, N-(4-(8-(2-cyanoacetyl)-3,8-diazabicyclo[3.2.1]octan-3-yl)-1H-pyrrolo[2,3-b]pyridin-6-yl)cyclopropanecarboxamide]: the IC50 was under 20 nM.

Regarding `N#CCC(=O)N1CC2CCC(C1)N2c1cc(NC(=O)C2CC2)nc2[nH]ccc12` [Example 678, N-(4-(3-(2-cyanoacetyl)-3,8-diazabicyclo[3.2.1]octan-8-yl)-1H-pyrrolo[2,3-b]pyridin-6-yl)cyclopropanecarboxamide], the IC50 was 20 to 200 nM.

Consider `N#CCC(=O)N1C[C@@H]2C[C@H]1CN2c1cc(NC(=O)C2CC2)nc2[nH]ccc12` [Example 679, N-(4-((1S,4S)-5-(2-cyanoacetyl)-2,5-diazabicyclo[2.2.1]heptan-2-yl)-1H-pyrrolo[2,3-b]pyridin-6-yl)cyclopropanecarboxamide], for which the IC50 is over 200 nM.

Take `N#CCCC(=O)N1C[C@@H]2C[C@H]1CN2c1cc(NC(=O)C2CC2)nc2[nH]ccc12` [Example 680, N-(4-((1S,4S)-5-(3-cyanopropanoyl)-2,5-diazabicyclo[2.2.1]heptan-2-yl)-1H-pyrrolo[2,3-b]pyridin-6-yl)cyclopropanecarboxamide]: the concentration for half-maximal inhibition (IC50) is over 200 nM.

`N#CCC(=O)N1C[C@H]2C[C@@H]1CN2c1cc(NC(=O)C2CC2)nc2[nH]ccc12` [Example 681, N-(4-((1R,4R)-5-(2-cyanoacetyl)-2,5-diazabicyclo[2.2.1]heptan-2-yl)-1H-pyrrolo[2,3-b]pyridin-6-yl)cyclopropanecarboxamide]: the IC50 was over 200 nM.

Take `N#CCCC(=O)N1C[C@H]2C[C@@H]1CN2c1cc(NC(=O)C2CC2)nc2[nH]ccc12` [Example 682, N-(4-((1R,4R)-5-(3-cyanopropanoyl)-2,5-diazabicyclo[2.2.1]heptan-2-yl)-1H-pyrrolo[2,3-b]pyridin-6-yl)cyclopropanecarboxamide]: the IC50 was over 200 nM.

Consider `N#CC1(CC(=O)N2CCN(c3cc(NC(=O)C4CC4)nc4[nH]ccc34)CC2)CC1` [Example 683, N-(4-(4-(2-(1-cyanocyclopropyl)acetyl)piperazin-1-yl)-1H-pyrrolo[2,3-b]pyridin-6-yl)cyclopropanecarboxamide], for which the IC50 was 20 to 200 nM.

Consider `N#CCCC(=O)N1CCN(c2cc(NC(=O)C3CC3)nc3[nH]ccc23)CC1` [Example 684, N-(4-(4-(3-cyanopropanoyl)piperazin-1-yl)-1H-pyrrolo[2,3-b]pyridin-6-yl)cyclopropanecarboxamide], for which the IC50 is over 200 nM.

Turning to `N#CCC(=O)N1C2CC1CN(c1cc(NC(=O)C3CC3)nc3[nH]ccc13)C2` [Example 685, N-(4-(6-(2-cyanoacetyl)-3,6-diazabicyclo[3.1.1]heptan-3-yl)-1H-pyrrolo[2,3-b]pyridin-6-yl)cyclopropanecarboxamide], the IC50 was over 200 nM.

Turning to `N#Cc1cccc(C(=O)N2C3CCC2CN(c2cc(NC(=O)C4CC4)nc4[nH]ccc24)C3)c1` [Example 686, N-(4-(8-(3-cyanobenzoyl)-3,8-diazabicyclo[3.2.1]octan-3-yl)-1H-pyrrolo[2,3-b]pyridin-6-yl)cyclopropanecarboxamide], the IC50 is under 20 nM.

As for `N#CCC(=O)N1CCN(c2nc(NC(=O)C3CC3)nc3[nH]ccc23)CC1` [Example 687, N-(4-(4-(2-cyanoacetyl)piperazin-1-yl)-7H-pyrrolo[2,3-d]pyrimidin-2-yl)cyclopropanecarboxamide], the IC50 is over 200 nM.

`N#CCC(=O)N1C2CCC1CN(c1nc(NC(=O)C3CC3)nc3[nH]ccc13)C2` [Example 688, (N-(4-(8-(2-cyanoacetyl)-3,8-diazabicyclo[3.2.1]octan-3-yl)-7H-pyrrolo[2,3-d]pyrimidin-2-yl)cyclopropanecarboxamide)]: the IC50 lay in the range of 20 to 200 nM.

For the compound `N#CC1(CC(=O)N2C3CCC2CN(c2nc(NC(=O)C4CC4)nc4[nH]ccc24)C3)CC1` [Example 689, N-(4-(8-(2-(1-cyanocyclopropyl)acetyl)-3,8-diazabicyclo[3.2.1]octan-3-yl)-7H-pyrrolo[2,3-d]pyrimidin-2-yl)cyclopropanecarboxamide], the IC50 was in the range of 20 to 200 nM.

With `O=C(Nc1cc(N2CCN(C(=O)NCC(F)(F)F)CC2)c2cc[nH]c2n1)C1CC1` [Example 690, 4-(6-(cyclopropanecarboxamido)-1H-pyrrolo[2,3-b]pyridin-4-yl)-N-(2,2,2-trifluoroethyl)piperazine-1-carboxamide], the IC50 is over 200 nM.

On to `O=C(Nc1cc(N2CC3CCC(C2)N3C(=O)NCC(F)(F)F)c2cc[nH]c2n1)C1CC1` [Example 691, 3-(6-(cyclopropanecarboxamido)-1H-pyrrolo[2,3-b]pyridin-4-yl)-N-(2,2,2-trifluoroethyl)-3,8-diazabicyclo[3.2.1]octane-8-carboxamide], for which the IC50 was under 20 nM.

Consider `CC(C)(C)OC(=O)N1CCN(c2cc(NC(=O)C3CC3)nc3[nH]ccc23)CC1` [Example 692, tert-butyl 4-(6-(cyclopropanecarboxamido)-1H-pyrrolo[2,3-b]pyridine-4-yl)piperazin-1-carboxylate], for which the IC50 is over 200 nM.

Turning to `CC(C)(C)OC(=O)N1C2CCC1CN(c1cc(NC(=O)C3CC3)nc3[nH]ccc13)C2` [Example 693, tert-butyl 3-(6-(cyclopropanecarboxamido)-1H-pyrrolo[2,3-b]pyridin-4-yl)-3,8-diazabicyclo[3.2.1]octane-8-carboxylate], the IC50 was in the range of 20 to 200 nM.
